We go through 38 molecules from patent publication US12428415B2, “Matriptase 2 inhibitors and uses thereof” (Disc Medicine, Inc., priority 2018, dated 2025).

In this assay the target is T1, Human Recombinant Matriptase 2 (Homo sapiens, UniProt Q8IU80).
T1 construct: purchased Enzo Life Sciences (an in-house preparation was also used) ALX-201-752-1
T1 sequence (Q8IU80 1-811): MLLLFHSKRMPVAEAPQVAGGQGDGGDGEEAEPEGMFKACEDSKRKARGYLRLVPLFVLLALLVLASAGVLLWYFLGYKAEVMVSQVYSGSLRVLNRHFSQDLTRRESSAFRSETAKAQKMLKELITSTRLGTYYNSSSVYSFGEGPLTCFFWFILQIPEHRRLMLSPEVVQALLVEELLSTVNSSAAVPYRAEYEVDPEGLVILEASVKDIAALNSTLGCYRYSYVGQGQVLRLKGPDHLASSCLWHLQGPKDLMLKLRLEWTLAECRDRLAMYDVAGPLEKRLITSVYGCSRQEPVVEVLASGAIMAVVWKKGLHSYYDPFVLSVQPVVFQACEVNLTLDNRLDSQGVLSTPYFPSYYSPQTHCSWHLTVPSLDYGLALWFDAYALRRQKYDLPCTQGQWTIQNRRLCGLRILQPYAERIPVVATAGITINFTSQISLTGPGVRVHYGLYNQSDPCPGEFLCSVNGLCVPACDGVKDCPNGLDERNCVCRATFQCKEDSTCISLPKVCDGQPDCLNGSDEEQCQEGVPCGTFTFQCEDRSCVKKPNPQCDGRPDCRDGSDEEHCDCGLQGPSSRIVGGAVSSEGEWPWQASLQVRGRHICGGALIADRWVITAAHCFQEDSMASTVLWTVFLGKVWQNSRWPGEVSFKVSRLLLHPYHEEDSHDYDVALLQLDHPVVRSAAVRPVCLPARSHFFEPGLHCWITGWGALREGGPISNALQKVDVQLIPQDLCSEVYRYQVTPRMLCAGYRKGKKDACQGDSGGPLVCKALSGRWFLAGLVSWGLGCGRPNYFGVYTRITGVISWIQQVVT
Kind of assay: Matriptase 2 fluorescence based inhibition assay, Method A (100 mM TRIS pH 9, 1 mg/mL BSA). It counts as biochemical. As to conditions: 1 uM; Assay Used A; read-out: Mar-2 % inhibition at 1 uM. In short, it runs like this:
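Enzyme (7 nM commercial or 15 nM in-house) preincubated 30 min with compound in 100 mM TRIS pH 9, 1 mg/mL BSA, 1% DMSO at 25° C. Boc-Gln-Ala-Arg-AMC substrate at 100 μM; fluorescence (Ex 360/Em 480 nm) read 60 min later. Screened at 1 and 10 μM; IC50 from variable-slope sigmoidal fit.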

For orientation: inhibition means the relative decrease from the control value, in per cent.

Consider `C[C@H]1CCCN1c1cccc(NC(=O)c2cc3ccc(C(=N)N)cc3n2Cc2ccc(C(N)=O)cc2)c1` [Compound I-124], for which the inhibition at 1 µM lay in the range of 0 to 25%.

Turning to `CC(C)(O)[C@@H](NC(=O)c1cc2ccc(C(=N)N)cc2n1Cc1ccc(C(N)=O)cc1)c1ccccc1` [Compound I-125], the inhibition at 1 µM was 25 to 50%.

In the case of `N=C(N)c1ccc2cc(C(=O)Nc3cc(F)cc(Br)c3)n(Cc3ccc(C(N)=O)cc3)c2c1` [Compound I-126], the inhibition at 1 µM fell in the range of 0 to 25%.

As for `N=C(N)c1ccc2cc(C(=O)Nc3ccc(N4CC[C@@H](F)C4)cc3)n(Cc3ccc(C(N)=O)cc3)c2c1` [Compound I-127], the inhibition at 1 µM fell in the range of 25 to 50%.

With `N=C(N)c1ccc2cc(C(=O)Nc3cccc(N4CC[C@H](O)C4)c3)n(Cc3ccc(C(N)=O)cc3)c2c1` [Compound I-128], the inhibition at 1 µM was in the range of 0 to 25%.

As for `N=C(N)c1ccc2cc(C(=O)Nc3cccc(N4CCOCC4)c3)n(Cc3ccc(C(N)=O)cc3)c2c1` [Compound I-129], the inhibition at 1 µM is 0 to 25%.

Regarding `N=C(N)c1ccc2cc(C(=O)Nc3cc(F)c(F)c(Br)c3)n(Cc3ccc(C(N)=O)cc3)c2c1` [Compound I-130], the inhibition at 1 µM lay in the range of 0 to 25%.

Turning to `N=C(N)c1ccc2cc(C(=O)Nc3cccc([N+](=O)[O-])c3)n(Cc3ccc(C(N)=O)cc3)c2c1` [Compound I-131], the inhibition at 1 µM is 0 to 25%.

As for `N=C(N)c1ccc2cc(C(=O)Nc3cccc(-n4cccn4)c3)n(Cc3ccc(C(N)=O)cc3)c2c1` [Compound I-132], the inhibition at 1 µM lay within 25 to 50%.

On to `N=C(N)c1ccc2cc(C(=O)Nc3cccc(N4CCSCC4)c3)n(Cc3ccc(C(N)=O)cc3)c2c1` [Compound I-133], for which the inhibition at 1 µM is 0 to 25%.

For the molecule `N=C(N)c1ccc2cc(C(=O)Nc3cccc(-c4ccccn4)c3)n(Cc3ccc(C(N)=O)cc3)c2c1` [Compound I-134], the inhibition at 1 µM fell in the range of 0 to 25%.

With `CN(C)CC(=O)O/N=C(\N)c1ccc2cc(C(=O)Nc3cccc(N4CCCC4)c3)n(Cc3ccc(C(N)=O)cc3)c2c1` [Compound I-135, 1-(4-Carbamoylbenzyl)-6-(N′-(2-(dimethylamino)acetoxy)carbamimidoyl)-N-(3-(pyrrolidin-1-yl)phenyl)-1H-indole-2-carboxamide], the inhibition at 1 µM lay in the range of 0 to 25%.

As for `NC(=O)c1ccc(Cn2c(C(=O)Nc3cccc(-c4ccccn4)c3)cc3ccc(C(N)=O)cc32)cc1` [Compound I-136, 1-(4-Carbamoylbenzyl)-N^2-(3-(pyridin-2-yl)phenyl)-1H-indole-2,6-dicarboxamide], the inhibition at 1 µM fell in the range of 0 to 25%.

As for `N=C(N)c1ccc2cc(C(=O)Nc3cccc(-c4ncc[nH]4)c3)n(Cc3ccc(C(N)=O)cc3)c2c1` [Compound I-137], the inhibition at 1 µM lay within 25 to 50%.

Take `C#Cc1cccc(NC(=O)c2cc3ccc(C(=N)N)cc3n2Cc2ccc(C(N)=O)cc2)c1` [Compound I-138]: the inhibition at 1 µM fell in the range of 0 to 25%.

Regarding `C=CCOc1cccc(NC(=O)c2cc3ccc(C(=N)N)cc3n2Cc2ccc(C(N)=O)cc2)c1` [Compound I-139], the inhibition at 1 µM fell in the range of 0 to 25%.

As for `N=C(N)c1ccc2cc(C(=O)Nc3cccc(N4CC[C@@H](F)C4)c3)n(Cc3ccc(C(N)=O)cc3)c2c1` [Compound I-140], the inhibition at 1 µM was in the range of 0 to 25%.

Consider `CC(C)OC(=O)NC(=N)c1ccc2cc(C(=O)Nc3cccc(N4CCCC4)c3)n(Cc3ccc(C(N)=O)cc3)c2c1` [Compound I-142], for which the inhibition at 1 µM is 25 to 50%.

`N=C(NC(=O)OCc1ccccc1)c1ccc2cc(C(=O)Nc3cccc(N4CCCC4)c3)n(Cc3ccc(C(N)=O)cc3)c2c1` [Compound I-143]: the inhibition at 1 µM was in the range of 0 to 25%.

For `N=C(N)c1ccc2cc(C(=O)Nc3cccc(-c4nccs4)c3)n(Cc3ccc(C(N)=O)cc3)c2c1` [Compound I-144], the inhibition at 1 µM was in the range of 0 to 25%.

In the case of `N=C(N)c1ccc2cc(C(=O)Nc3ccc(Br)cc3F)n(Cc3ccc(C(N)=O)cc3)c2c1` [Compound I-145], the inhibition at 1 µM was in the range of 0 to 25%.

`C#CCOc1cccc(NC(=O)c2cc3ccc(C(=N)N)cc3n2Cc2ccc(C(N)=O)cc2)c1` [Compound I-146]: the inhibition at 1 µM lay within 25 to 50%.

With `CC(C)COC(=O)NC(=N)c1ccc2cc(C(=O)Nc3cccc(N4CCCC4)c3)n(Cc3ccc(C(N)=O)cc3)c2c1` [Compound I-147], the inhibition at 1 µM lay in the range of 0 to 25%.

As for `N=C(NC(=O)Oc1ccccc1)c1ccc2cc(C(=O)Nc3cccc(N4CCCC4)c3)n(Cc3ccc(C(N)=O)cc3)c2c1` [Compound I-148], the inhibition at 1 µM was 0 to 25%.

For `CS(=O)(=O)c1cccc(NC(=O)c2cc3ccc(C(=N)N)cc3n2Cc2ccc(C(N)=O)cc2)c1` [Compound I-150], the inhibition at 1 µM is 0 to 25%.

Consider `N=C(N)c1ccc2cc(C(=O)Nc3cccc(-c4ccccc4)c3)n(Cc3ccc(C(N)=O)cc3)c2c1` [Compound I-151], for which the inhibition at 1 µM is 0 to 25%.

Consider `N=C(N)c1ccc2cc(C(=O)Nc3cc(N4CCCC4)ccc3F)n(Cc3ccc(C(N)=O)cc3)c2c1` [Compound I-152], for which the inhibition at 1 µM lay within 0 to 25%.

Take `N=C(N)c1ccc2cc(C(=O)Nc3cccc(-n4ccccc4=O)c3)n(Cc3ccc(C(N)=O)cc3)c2c1` [Compound I-153]: the inhibition at 1 µM fell in the range of 25 to 50%.

As for `N=C(N)c1ccc2cc(C(=O)Nc3cccc(-n4cccc4)c3)n(Cc3ccc(C(N)=O)cc3)c2c1` [Compound I-154], the inhibition at 1 µM fell in the range of 0 to 25%.

Regarding `N=C(N)c1ccc2cc(C(=O)Nc3ccc(F)c(N4CCCC4)c3)n(Cc3ccc(C(N)=O)cc3)c2c1` [Compound I-155], the inhibition at 1 µM lay within 0 to 25%.

For the molecule `N=C(N)c1ccc2cc(C(=O)Nc3cccc(N4CCCC4=O)c3)n(Cc3ccc(C(N)=O)cc3)c2c1` [Compound I-156], the inhibition at 1 µM fell in the range of 0 to 25%.

Turning to `CC(C)[C@@H](NC(=O)OC(C)(C)C)C(=O)O/N=C(\N)c1ccc2cc(C(=O)Nc3cccc(N4CCCC4)c3)n(Cc3ccc(C(N)=O)cc3)c2c1` [Compound I-157, (R)-tert-butyl (1-(((amino(1-(4-carbamoylbenzyl)-2-((3-(pyrrolidin-1-yl)phenyl)-carbamoyl)-1H-indol-6-yl)methylene)amino)oxy)-3-methyl-1-oxobutan-2-yl)carbamate], the inhibition at 1 µM lay within 0 to 25%.

`C[C@H](NC(=O)OC(C)(C)C)C(=O)O/N=C(\N)c1ccc2cc(C(=O)Nc3cccc(N4CCCC4)c3)n(Cc3ccc(C(N)=O)cc3)c2c1` [Compound I-158, (S)-tert-butyl (1-(((amino(1-(4-carbamoylbenzyl)-2-((3-(pyrrolidin-1-yl)phenyl)carbamoyl)-1H-indol-6-yl)methylene)amino)oxy)-1-oxopropan-2-yl)carbamate]: the inhibition at 1 µM was in the range of 0 to 25%.

With `CCCCCCOC(=O)NC(=N)c1ccc2cc(C(=O)Nc3cccc(N4CCCC4)c3)n(Cc3ccc(C(N)=O)cc3)c2c1` [Compound I-159], the inhibition at 1 µM was in the range of 0 to 25%.

In the case of `CCCCOC(=O)NC(=N)c1ccc2cc(C(=O)Nc3cccc(N4CCCC4)c3)n(Cc3ccc(C(N)=O)cc3)c2c1` [Compound I-160], the inhibition at 1 µM lay within 0 to 25%.

With `CCCOC(=O)NC(=N)c1ccc2cc(C(=O)Nc3cccc(N4CCCC4)c3)n(Cc3ccc(C(N)=O)cc3)c2c1` [Compound I-162], the inhibition at 1 µM lay in the range of 0 to 25%.

As to `N=C(N)c1ccc2cc(C(=O)Nc3cccc(-c4cnco4)c3)n(Cc3ccc(C(N)=O)cc3)c2c1` [Compound I-163], the inhibition at 1 µM was 0 to 25%.

With `N=C(NC(=O)OC1CCCCC1)c1ccc2cc(C(=O)Nc3cccc(N4CCCC4)c3)n(Cc3ccc(C(N)=O)cc3)c2c1` [Compound I-164], the inhibition at 1 µM was in the range of 0 to 25%.
